Measurements from PubChem BioAssay AID330 (DTP/NCI, 2004).
Values joined by “and” are separate entries in the source; they are usually repeats but may differ in a detail not shown here. Identical values can stand only once. Toxic doses and inconclusive results are not listed. The calls were made as follows: active = survival T/C of 150% or more; inactive = T/C below 125% in these data.

Tested on: P388 leukemia ip, CD2F1 mice, survival T/C
Experiment: NCI In Vivo Anticancer Drug Screen. Data for tumor model P388 Leukemia (intraperitoneal) in CD2F1 (CDF1) mice
Details: endpoint: median survival time, higher = longer survival
Outline: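 Mice carrying the transplanted tumor received test compound or vehicle. Survival was recorded in each group, and the value is the treated-group measurement divided by that of the vehicle-treated control group.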

Measured: T/C

CC(=O)OC1CC2CC1C1C3C=CC(C3)C21 (stereo not drawn)
inactive: dose: 25.0 mg/kg/injection, schedule: Q01DX009 (ip), vehicle: saline with Tween-80 100 % of control | dose: 50.0 mg/kg/injection, schedule: Q01DX009 (ip), vehicle: saline with Tween-80 104 % of control | dose: 100.0 mg/kg/injection, schedule: Q01DX001 (ip), vehicle: saline 100 % of control | dose: 200.0 mg/kg/injection, schedule: Q01DX001 (ip), vehicle: saline 91 % of control | dose: 400.0 mg/kg/injection, schedule: Q01DX001 (ip), vehicle: saline 95 % of control

CC1C2(c3ccccc3)C(C(=O)c3ccccc3)NC(c3ccccc3)C12c1ccccc1 (stereo not drawn)
inactive: dose: 50.0 mg/kg/injection, schedule: Q01DX005 (ip), vehicle: saline with Tween-80 87 % of control | dose: 100.0 mg/kg/injection, schedule: Q01DX005 (ip), vehicle: saline with Tween-80 87 % of control

COc1ccc(C(C)c2cc3c(cc2OC)OCO3)cc1O (stereo not drawn)
inactive: dose: 50.0 mg/kg/injection, schedule: Q01DX005 (ip), vehicle: distilled water + Tween-80 111 % of control | dose: 100.0 mg/kg/injection, schedule: Q01DX005 (ip), vehicle: distilled water + Tween-80 102 % of control | dose: 200.0 mg/kg/injection, schedule: Q01DX005 (ip), vehicle: distilled water + Tween-80 105 % of control

CCOC(=O)C(Cc1ccc(Oc2nc3ccccc3o2)cc1)NC(C)=O (stereo not drawn)
inactive: dose: 25.0 mg/kg/injection, schedule: Q01DX001 (ip), vehicle: Klucel (hydroxypropylcellulose) (HPC) 110 % of control | dose: 50.0 mg/kg/injection, schedule: Q01DX001 (ip), vehicle: Klucel (hydroxypropylcellulose) (HPC) 112 % of control | dose: 100.0 mg/kg/injection, schedule: Q01DX001 (ip), vehicle: Klucel (hydroxypropylcellulose) (HPC) 109 % of control

COc1ccc2c(c1)CCC1C2=CC(=O)/C1=C\[O-].COc1ccc2c(c1)CCC1C2=CC(=O)/C1=C\[O-].[Cu+2] (stereo not drawn)
inactive: dose: 33.0 mg/kg/injection, schedule: Q04DX003 (ip), vehicle: saline with Tween-80 109 % of control | dose: 50.0 mg/kg/injection, schedule: Q04DX003 (ip), vehicle: saline with Tween-80 100 % of control and 90 % of control | dose: 75.0 mg/kg/injection, schedule: Q04DX003 (ip), vehicle: saline with Tween-80 100 % of control

COc1cc2c(cc1C)C1=C(C)C(=O)OC1[C@@H](O)[C@@H]2C (stereo partly drawn)
inactive: dose: 2.25 mg/kg/injection, schedule: Q01DX005 (ip), vehicle: Klucel (hydroxypropylcellulose) (HPC) 104 % of control | dose: 4.5 mg/kg/injection, schedule: Q01DX005 (ip), vehicle: Klucel (hydroxypropylcellulose) (HPC) 101 % of control | dose: 9.0 mg/kg/injection, schedule: Q01DX005 (ip), vehicle: Klucel (hydroxypropylcellulose) (HPC) 101 % of control | dose: 18.0 mg/kg/injection, schedule: Q01DX005 (ip), vehicle: Klucel (hydroxypropylcellulose) (HPC) 94 % of control

O=C1CNC(=O)C(Cc2c[nH]c3ccccc23)N1 (stereo not drawn)
inactive: dose: 50.0 mg/kg/injection, schedule: Q01DX009 (ip), vehicle: saline 100 % of control | dose: 100.0 mg/kg/injection, schedule: Q01DX009 (ip), vehicle: saline 96 % of control | dose: 200.0 mg/kg/injection, schedule: Q01DX009 (ip), vehicle: saline 100 % of control
